These are literature values, as cited in publication PMC9851200, “Multiparameter phenotypic screening for endogenous TFEB and TFE3 translocation identifies novel chemical series modulating lysosome function” (Autophagy, 2022).

Holding throughout (parameters): method as in original PKIS2 published data
Data set [1] deals with kinases (KINOMEscan panel) (Homo sapiens, UniProt P17612). As to conditions: kinase PRKACA; Published KINOMEscan; ref original PKIS2 published data; cited from earlier work.
Data set [2] addresses T1, kinases (KINOMEscan panel) (Homo sapiens, UniProt P36888).
T1 sequence (P36888 27-993): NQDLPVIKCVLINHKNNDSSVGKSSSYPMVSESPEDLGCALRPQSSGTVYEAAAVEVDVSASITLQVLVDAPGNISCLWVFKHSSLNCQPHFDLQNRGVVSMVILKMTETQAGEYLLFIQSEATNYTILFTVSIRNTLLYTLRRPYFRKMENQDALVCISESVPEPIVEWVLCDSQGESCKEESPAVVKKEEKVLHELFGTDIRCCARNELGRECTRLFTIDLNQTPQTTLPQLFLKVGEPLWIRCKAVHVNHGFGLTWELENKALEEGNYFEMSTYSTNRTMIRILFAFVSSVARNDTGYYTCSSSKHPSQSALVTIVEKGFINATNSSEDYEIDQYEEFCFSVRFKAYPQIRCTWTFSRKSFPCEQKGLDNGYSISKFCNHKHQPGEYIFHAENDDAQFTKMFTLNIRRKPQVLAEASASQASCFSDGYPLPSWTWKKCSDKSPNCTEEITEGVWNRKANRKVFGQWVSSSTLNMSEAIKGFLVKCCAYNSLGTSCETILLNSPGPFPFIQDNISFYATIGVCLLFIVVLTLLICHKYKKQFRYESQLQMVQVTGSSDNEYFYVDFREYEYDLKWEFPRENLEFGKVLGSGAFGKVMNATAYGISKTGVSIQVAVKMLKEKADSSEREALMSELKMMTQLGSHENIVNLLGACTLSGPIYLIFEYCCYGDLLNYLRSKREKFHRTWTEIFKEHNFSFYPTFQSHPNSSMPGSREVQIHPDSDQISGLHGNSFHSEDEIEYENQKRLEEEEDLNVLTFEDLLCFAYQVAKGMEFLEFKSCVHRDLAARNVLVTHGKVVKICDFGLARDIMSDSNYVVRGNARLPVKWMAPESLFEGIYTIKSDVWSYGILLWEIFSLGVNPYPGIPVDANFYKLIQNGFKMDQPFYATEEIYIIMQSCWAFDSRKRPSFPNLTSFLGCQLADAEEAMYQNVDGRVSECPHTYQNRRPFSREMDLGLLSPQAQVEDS
As to conditions: Published KINOMEscan, ref original PKIS2 published data, cited from earlier work.

The target in data set [3] is T2, kinases (KINOMEscan panel) (Homo sapiens, UniProt P51955).
T2 sequence (P51955 1-445): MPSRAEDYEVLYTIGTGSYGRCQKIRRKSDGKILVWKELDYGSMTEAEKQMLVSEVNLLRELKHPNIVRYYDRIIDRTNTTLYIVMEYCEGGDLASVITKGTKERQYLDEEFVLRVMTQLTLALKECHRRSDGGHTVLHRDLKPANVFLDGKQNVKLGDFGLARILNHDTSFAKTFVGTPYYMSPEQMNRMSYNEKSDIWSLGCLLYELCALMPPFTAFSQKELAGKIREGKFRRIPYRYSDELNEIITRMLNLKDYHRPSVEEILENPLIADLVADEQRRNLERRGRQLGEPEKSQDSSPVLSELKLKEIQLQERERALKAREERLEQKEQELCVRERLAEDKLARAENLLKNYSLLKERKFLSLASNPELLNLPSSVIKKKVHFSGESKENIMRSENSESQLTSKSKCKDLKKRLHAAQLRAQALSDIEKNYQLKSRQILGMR
As to conditions: kinase NEK2; Published KINOMEscan; ref original PKIS2 published data; cited from earlier work.

The target in data set [4] is T3, kinases (KINOMEscan panel) (Homo sapiens, UniProt Q92630).
T3 sequence (Q92630 1-601): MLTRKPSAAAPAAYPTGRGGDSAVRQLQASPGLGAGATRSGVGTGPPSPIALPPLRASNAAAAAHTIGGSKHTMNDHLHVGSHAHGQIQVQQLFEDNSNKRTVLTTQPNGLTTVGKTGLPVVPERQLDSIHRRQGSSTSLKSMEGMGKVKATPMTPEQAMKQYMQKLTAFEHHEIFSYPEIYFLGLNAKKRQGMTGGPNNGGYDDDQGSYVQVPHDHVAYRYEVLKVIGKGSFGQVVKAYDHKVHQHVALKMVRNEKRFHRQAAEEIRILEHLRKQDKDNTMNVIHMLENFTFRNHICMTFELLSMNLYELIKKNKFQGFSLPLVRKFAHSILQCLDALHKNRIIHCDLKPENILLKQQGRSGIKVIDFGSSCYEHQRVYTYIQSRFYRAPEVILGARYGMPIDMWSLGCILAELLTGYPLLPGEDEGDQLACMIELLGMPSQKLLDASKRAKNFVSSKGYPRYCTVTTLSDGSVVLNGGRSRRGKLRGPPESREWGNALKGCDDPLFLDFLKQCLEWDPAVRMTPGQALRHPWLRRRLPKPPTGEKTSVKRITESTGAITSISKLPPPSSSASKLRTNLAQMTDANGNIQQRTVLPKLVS
As to conditions: DYRK2; Published KINOMEscan; ref original PKIS2 published data; cited from earlier work.

As to `Cc1cccc(-c2nc(Nc3ccncc3)c3ccccc3n2)n1` [NK215], the “KINOMEscan PRKACA” value in data set [1] was 23. Further, in data set [2] (FLT3), the “KINOMEscan FLT3” value is recorded as 0. Moreover, the “KINOMEscan FLT3-autoinhibited” value in data set [2] (kinase FLT3-autoinhibited) is on record as 0. Further, the “KINOMEscan NEK2” value in data set [3] is 0. In data set [4], the “KINOMEscan DYRK2” value is 0.
